Values after ≈ are worked out from the molar mass of the structure shown. Where two headings read alike, the source gives them in different places. Bridge positions count the residues as written; N and C are the ends. Square brackets hold non-standard residues; d marks the D form. Peptide text beside a SMILES is read from it. Dab = NCC[C@H](N)C(=O)O
Key:
B. cinerea [1] = experiment: In vitro antifungal activity (MIC) in SFM culture media, with or without added salts; conditions: SFM + 2 mM CaCl2; Table 10
C. parapsilosis = experiment: MIC by CLSI M27/M38 methodology; assay type: cell-based, Candida parapsilosis; conditions: C. parapsilosis isolate ATCC 22019; Table 8
Protocol: (§1) Testing for antifungal activity used half-strength potato dextrose broth for peptides and RPMI for comparator antifungals fluconazole and voriconazole. CLSI M27 and M38 methodologies used for to measure MICs. Minimal Inhibitory Concentration (MIC) is the concentration of the compound, protein, or peptide at which there is no significant growth of the microorganism relative to the growth of the microorganism in growth medium lacking the compound, protein, or peptide.
(§2) […] The concentration range for peptides in potato dextrose broth was 0.06-2 mcg/ml, the concentration range for fluconazole was 0.125-64 mcg/ml, and the concentration range for voriconazole was 0.03-16 mcg/ml. MICs were determined at 24-72 hours.

Coccidioides sp. = assay type: cell-based; conditions: Table 8
[2] = system: B. cinerea, F. graminearum, F. oxysporum and P. capsici; assay type: cell-based; conditions: in vitro, low cationic conditions
Candida auris = experiment: MIC by CLSI M27/M38 methodology; assay type: cell-based; conditions: Table 8
Protocol: as §1, §2

Fusarium (F. oxysporum) = experiment: MIC by CLSI M27/M38 methodology; assay type: cell-based; conditions: Table 8
Protocol: as §1, §2

Fusarium (F. solani) = experiment: MIC by CLSI M27/M38 methodology; assay type: cell-based; conditions: Fusarium isolate F4 (F. solani); Table 8
Protocol: as §1, §2

Candida albicans = experiment: MIC by CLSI M27/M38 methodology; assay type: cell-based; conditions: Table 8
Protocol: as §1, §2

Aspergillus fumigatus = experiment: MIC by CLSI M27/M38 methodology; assay type: cell-based; conditions: Table 8
Protocol: as §1, §2

B. cinerea [3] = experiment: Semi-in planta drop inoculation assay on detached leaves of N. benthamiana, gray mold symptoms; assay type: in vivo, B. cinerea on N. benthamiana; conditions: 48 h
Botrytis cinerea = conditions: Table 18
[4] = Coccidioides sp. isolate Cocci1
[5] = Coccidioides sp. isolate Cocci2
[6] = Coccidioides sp. isolate DI17-143
[7] = Fusarium isolate F1 (F. oxysporum)
[8] = Fusarium isolate F2 (F. oxysporum)
[9] = Candida albicans isolate ATCC 90028
[10] = Candida albicans isolate SC5314
[11] = Aspergillus fumigatus isolate AF293
[12] = Aspergillus fumigatus isolate DI15-106
[13] = Aspergillus fumigatus isolate DI15-116

NCC[C@H](NC(=O)CNC(=O)[C@@H](N)Cc1ccccc1)C(=O)N[C@@H](CS)C(=O)N[C@@H](CCN)C(=O)NCC(=O)N[C@@H](Cc1ccccc1)C(=O)N[C@@H](CCN)C(=O)N[C@@H](CCN)C(=O)N[C@@H](CCN)C(=O)N[C@@H](CS)C(=O)N[C@@H](Cc1ccccc1)C(=O)N[C@@H](CS)C(=O)N[C@@H](Cc1c[nH]c2ccccc12)C(=O)N[C@@H](CCN)C(=O)N[C@@H](Cc1c[nH]c2ccccc12)C(=O)N[C@@H](CS)C(=O)O [GMA4C_V5, FG(Dab)C(Dab)GF(Dab)(Dab)(Dab)CFCW(Dab)WC] (H-FG[Dab]C[Dab]GF[Dab][Dab][Dab]CFCW[Dab]WC-OH; N-terminus assumed)
SFM + 2 mM CaCl2 MIC (B. cinerea [1]): >6 (very μM

C[C@@H](O)[C@H](NC(=O)[C@H](CS)NC(=O)[C@H](Cc1ccccc1)NC(=O)[C@H](CS)NC(=O)[C@H](CCCNC(=N)N)NC(=O)[C@H](CCCNC(=N)N)NC(=O)[C@H](CCCNC(=N)N)NC(=O)[C@H](Cc1ccccc1)NC(=O)CNC(=O)[C@H](CCCNC(=N)N)NC(=O)[C@H](CS)NC(=O)[C@H](CCCNC(=N)N)NC(=O)CNC(=O)CN)C(=O)N[C@H](C(=O)N[C@@H](Cc1c[nH]cn1)C(=O)N[C@@H](CS)C(N)=O)[C@@H](C)O [GMA4C_AC] (H-GGRCRGFRRRCFCTTHC-NH2; N-terminus assumed)
SFM + 2 mM CaCl2 MIC (B. cinerea [1]): >6 (a few μM
F. graminearum MIC (F. graminearum): 3 µM
MIC Fusarium graminearum (F. graminearum): 3 µM (≈ 6.05 µg/mL)
MIC Values against F. graminearum (F. graminearum): 6 µM (≈ 12.1 µg/mL)

NCC[C@H](NC(=O)CNC(=O)[C@@H](N)Cc1ccccc1)C(=O)N[C@@H](CS)C(=O)N[C@@H](CCN)C(=O)NCC(=O)N[C@@H](Cc1ccccc1)C(=O)N[C@@H](CCN)C(=O)N[C@@H](CCN)C(=O)N[C@@H](CCN)C(=O)N[C@@H](CS)C(=O)N[C@@H](Cc1ccccc1)C(=O)N[C@@H](CS)C(=O)N[C@@H](Cc1c[nH]c2ccccc12)C(=O)N[C@@H](CCN)C(=O)N[C@@H](Cc1c[nH]c2ccccc12)C(=O)N[C@@H](CS)C(N)=O [GMA4C_V5A, FG(Dab)C(Dab)GF(Dab)(Dab)(Dab)CFCW(Dab)WC-NH2] (H-FG[Dab]C[Dab]GF[Dab][Dab][Dab]CFCW[Dab]WC-NH2; N-terminus assumed)
MIC, 100% (C. parapsilosis): 8 µg/mL (≈ 4.08 µM)
MIC, 100% (Coccidioides sp.; [4]): 2 µg/mL (≈ 1.02 µM)
MIC, 100% (Coccidioides sp.; [5]): 16 µg/mL (≈ 8.17 µM)
MIC, 100% (Coccidioides sp.; [6]): 16 µg/mL (≈ 8.17 µM)
antifungal activity relative to the wild-type GMA4C_AC control ([2]; against B. cinerea, F. graminearum, F. oxysporum and P. capsici): equivalent to the wild-type GMA4C_AC control
MIC, 100% (Candida auris; Candida auris isolate DI17-46): 16 µg/mL (≈ 8.17 µM)
MIC, 100% (Candida auris; Candida auris isolate DI17-47): 16 µg/mL (≈ 8.17 µM)
MIC, 100% (Candida auris; Candida auris isolate DI17-48): 16 µg/mL (≈ 8.17 µM)
MIC, 100% (Fusarium (F. oxysporum); [7]): 8 µg/mL (≈ 4.08 µM)
MIC, 100% (Fusarium (F. oxysporum); [8]): 16 µg/mL (≈ 8.17 µM)
MIC, 100% (Fusarium (F. solani)): 8 µg/mL (≈ 4.08 µM)
MIC, 100% (Candida albicans; [9]): 16 µg/mL (≈ 8.17 µM)
MIC, 100% (Candida albicans; Candida albicans isolate CA3): 8 µg/mL (≈ 4.08 µM)
MIC, 100% (Candida albicans; [10]): 16 µg/mL (≈ 8.17 µM)
MIC, 100% (Aspergillus fumigatus; [11]): 32 µg/mL (≈ 16.3 µM)
MIC, 100% (Aspergillus fumigatus; [12]): >32 µg/mL
MIC, 100% (Aspergillus fumigatus; [13]): >32 µg/mL

CC[C@H](C)[C@@H]1NC(=O)[C@H](CCCNC(=N)N)NC(=O)[C@H]([C@@H](C)O)NC(=O)[C@H](Cc2ccccc2)NC(=O)[C@H](Cc2c[nH]c3ccccc23)NC(=O)[C@H](Cc2ccccc2)NC(=O)[C@H](CCCNC(=N)N)NC(=O)[C@H](CCCNC(=N)N)NC(=O)[C@H](CC(C)C)NC(=O)[C@H](Cc2ccccc2)NC(=O)CNC(=O)[C@H](CCCCN)NC(=O)[C@@H](NC(=O)[C@H](CCCNC(=N)N)NC(=O)CNC(=O)CN)CSSC[C@@H](C(N)=O)NC1=O [GMA4C_V9] (H-GGRCKGFLRRFWFTRIC-NH2; disulfide 4-17)
effectiveness in reducing gray mold disease symptoms (B. cinerea [3]; peptide tested at 1.5 μM, 3 μM and 6 μM): effective in reducing gray mold disease symptoms
MIC (SFM + 2 mM CaCl2) (Botrytis cinerea): 12 µM
MIC (SFM + 100 mM KCl) (Botrytis cinerea): 6 to 12 µM
MIC (SFM + 100 mM NaCl) (Botrytis cinerea): 3 µM
MIC SFM (Botrytis cinerea): 3 µM (≈ 6.3 µg/mL)

CC[C@H](C)[C@H](NC(=O)[C@H](CCCNC(=N)N)NC(=O)[C@@H](NC(=O)[C@H](CS)NC(=O)[C@H](Cc1ccccc1)NC(=O)[C@H](CS)NC(=O)[C@H](CCCNC(=N)N)NC(=O)[C@H](CCCNC(=N)N)NC(=O)[C@H](CCCNC(=N)N)NC(=O)[C@H](Cc1ccccc1)NC(=O)CNC(=O)[C@H](CCCNC(=N)N)NC(=O)[C@H](CS)NC(=O)[C@H](CCCNC(=N)N)NC(=O)CNC(=O)CN)[C@@H](C)O)C(=O)N[C@@H](CS)C(N)=O [GMA4C_V2A] (H-GGRCRGFRRRCFCTRIC-NH2; N-terminus assumed)
MIC, 100% (C. parapsilosis): 8 µg/mL (≈ 3.91 µM)
MIC, 100% (Coccidioides sp.; [4]): 8 µg/mL (≈ 3.91 µM)
MIC, 100% (Coccidioides sp.; [5]): 16 µg/mL (≈ 7.82 µM)
MIC, 100% (Coccidioides sp.; [6]): 16 µg/mL (≈ 7.82 µM)
reduction in antifungal activity relative to the wild-type GMA4C_AC control ([2]; against B. cinerea and F. graminearum): two-fold reduction
MIC, 100% (Candida auris; Candida auris isolate DI17-46): 16 µg/mL (≈ 7.82 µM)
MIC, 100% (Candida auris; Candida auris isolate DI17-47): 16 µg/mL (≈ 7.82 µM)
MIC, 100% (Candida auris; Candida auris isolate DI17-48): 16 µg/mL (≈ 7.82 µM)
MIC, 100% (Fusarium (F. oxysporum); [7]): 8 µg/mL (≈ 3.91 µM)
MIC, 100% (Fusarium (F. oxysporum); [8]): 16 µg/mL (≈ 7.82 µM)
MIC, 100% (Fusarium (F. solani)): 8 µg/mL (≈ 3.91 µM)
MIC, 100% (Candida albicans; [9]): 16 µg/mL (≈ 7.82 µM)
MIC, 100% (Candida albicans; Candida albicans isolate CA3): 16 µg/mL (≈ 7.82 µM)
MIC, 100% (Candida albicans; [10]): 16 µg/mL (≈ 7.82 µM)
MIC, 100% (Aspergillus fumigatus; [11]): 32 µg/mL (≈ 15.6 µM)
MIC, 100% (Aspergillus fumigatus; [12]): >32 µg/mL
MIC, 100% (Aspergillus fumigatus; [13]): >32 µg/mL

CC[C@H](C)[C@@H]1NC(=O)[C@H](CCCNC(=N)N)NC(=O)[C@@H](NC(=O)[C@H](CCCNC(=N)N)NC(=O)CNC(=O)[C@@H](N)CO)CSSC[C@@H](C(N)=O)NC(=O)[C@H](CC(N)=O)NC(=O)[C@H](CCCCN)NC(=O)[C@H]([C@@H](C)O)NC(=O)[C@H](Cc2c[nH]c3ccccc23)NC(=O)[C@H](Cc2ccccc2)NC(=O)[C@H](Cc2c[nH]c3ccccc23)NC(=O)[C@H](CCCNC(=N)N)NC(=O)[C@H](Cc2ccccc2)NC(=O)[C@H](CC(C)C)NC1=O [GMA1C_V2] (H-SGRCRILFRWFWTKNC-NH2; disulfide 4-16)
reducing the symptoms of gray mold, comparison of peptides (B. cinerea [3]; peptide at 1.5 μM): more effective than GMA1C_V1
gray mold symptoms (B. cinerea [3]; peptide at 3 μM and 6 μM): completely abrogated gray mold symptoms
MIC (SFM + 2 mM CaCl2) (Botrytis cinerea): 3 µM
MIC (SFM + 100 mM KCl) (Botrytis cinerea): >12 µM
MIC (SFM + 100 mM NaCl) (Botrytis cinerea): 3 µM
MIC SFM (Botrytis cinerea): 1.5 to 3 µM

C[C@@H](O)[C@H](NC(=O)[C@H](CS)NC(=O)[C@H](Cc1ccccc1)NC(=O)[C@H](CS)NC(=O)[C@H](CCCNC(=N)N)NC(=O)[C@H](CCCNC(=N)N)NC(=O)[C@H](CCCNC(=N)N)NC(=O)[C@H](Cc1ccccc1)NC(=O)CNC(=O)[C@H](CCCNC(=N)N)NC(=O)[C@H](CS)NC(=O)[C@H](CCCNC(=N)N)NC(=O)CN)C(=O)N[C@H](C(=O)N[C@@H](Cc1c[nH]cn1)C(=O)N[C@@H](CS)C(=O)O)[C@@H](C)O [GMA4AC] (H-GRCRGFRRRCFCTTHC-OH; N-terminus and C-terminus assumed)
MIC Fusarium graminearum (F. graminearum): 6 µM (≈ 11.8 µg/mL)

— patent publication US20240383955A1, “MODIFIED ANTIMICROBIAL PEPTIDES” (priority 2021, published 2024)
